According to US4497803A, “Inclusion compound of lankacidin-group antibiotic and use thereof” (priority 1982, dated 1985):
In brackets after ≈: the same amount, converted by molar mass. Where two headings read alike, the source gives them in different places.

Assays:
[1] = Solubility of lankacidin-group in β-CD solution (10^-2 Mol/l), shaken 30 minutes to one hour (Example 4); format: physicochemical
Method: (§1) Powdery lankacidin C was added to an aqueous solution of cyclodextrin (hereinafter referred to as "CD") to have 4 mg/ml of the lankacidin C contained. After the mixture was stirred with a mixer, it was shaken at 5° C. for 2 hours, and passed through filter paper. The absorbancy of the filtrate was measured at 227-229 nm to determine concentration of the lankacidin C.
The solubility of lankacidin-group in a solution of β-CD (10^-2 Mol/l) were measured in the same manner as that of Example 1 except that the shaking was continued for 30 minutes to one hour.

[2] = Solubility in β-CD solution, shaken 16 hours (Example 3); format: physicochemical
Method: as §1
The solubilities of lankacidin A, lankacidin C and lankacidinol in a β-CD solution were measured in the same manner as that of Example 1 except that the shaking was continued for 16 hours.

St. aureus 209P = experiment: Stability of inclusion compound of lankacidin-group (24° C., for 6 days): antibacterial activity by paper disk assay; format: cell-based; conditions: methanol, 1000 μg/ml
Method: The inclusion compound of the present invention is stable in an aqueous solution, although it splits into lankacidin-group moiety and cyclodextrins moiety, when it is in the form of solution or powder, by contacting it with organic solvents (e.g., ethyl acetate, methyl isobutyl ketone) or various carriers (e.g., silica gel, high-porous resins). […] In comparing the antibacterial activity, concentrations of the inclusion compound are calculated in terms of lankacidin-group compound from which the inclusion compound is prepared.
Stability of inclusion compound of lankacidin-group
*1 Paper disk assay using Trypticase soy agar (Baltimore Biologicals Ltd.
U.S.A.) as test culture media.
*2 1000 μg/ml, Lankacidingroup is stable in methanol.
*3 Aqueous solution of the inclusion compound with cyclodextrin (1000
μg/ml calculated in terms of lankacidingroup)

[3] = Solubility of inclusion compound in water; format: physicochemical
Method: The lankacidin-group is added to each of solutions containing various amounts of cyclodextrin. The minimum concentration of cyclodextrin which dissolves the maximum amount of the lankacidin-group compound and practical concentrations thereof are determined on the basis of amounts of the lankacidin-group compound dissolved in the cyclodextrin solutions. Then, the molar ratio of cyclodextrin to lankacidin-group compound is calculated by the following equation:
Molar ratio=[Molarity of cyclodextrin]:[(Saturation molarity of lankacidin-group compound in a certain concentration of cyclodextrin-solution)-(saturation molarity of lankacidin-group compound in an aqueous solution)].
Moreover, a large amount of the present inclusion compound is dissolved in water and it is kept stably therein. Solubility of the inclusion compound in water is greater than that of landacidin-group compounds in water, when the amount of the inclusion compound dissolved is calculated in terms of lankacidin-group compound, and than saturation concentration of cyclodextrin in water so far as cyclodextrin contained in the inclusion compound is concerned (Table 2).
(1) Solubility of lankacidingroup in water.
(2) Solubility of lankacidingroup in M/100 cyclodextrin solution.
(3) Concentration of cyclodextrin of (2).
(4) Solubility (maximum) of the present inclusion compound (calculated in
terms of lankacidingroup contained) in water.
(5) Concentration of cyclodextrin contained in the inclusion compound of […]

[4] = aqueous β-cyclodextrin solution
[5] = aqueous β-cyclodextrin solution, β-CD 10^-2 Mol/l, read-out: Solubility
[6] = β-CD 0 Mol/l (water), read-out: Solubility

## CC(=O)OC1C=CC(C)=CC(NC(=O)C(C)OC(C)=O)C2(C)C(=O)OC(CC(OC(C)=O)C=CC(C)=CC1)C(C)C2=O (stereo not drawn) [Lankacidinol 2',8,14-triacetate]
[1]
  ratio: Solubility in a 10^-2 Mol/l solution of CD/solubility in water: 9.0
[1]; [4]
  solubility: 332 µg/mL (≈ 565 µM)
[1]; water
  solubility: 36.9 µg/mL (≈ 62.8 µM)

## CC(=O)OC1C=CC(C)=CC(NC(=O)C(C)O)C2(C)C(=O)OC(CC(OC(C)=O)C=CC(C)=CC1)C(C)C2=O (stereo not drawn) [Lankacidinol 8,14-diacetate]
[1]; [5]
  solubility: 1780 µg/mL (≈ 3260 µM)
[1]; [6]
  solubility: 440 µg/mL (≈ 806 µM)
[1]; β-CD 10^-2 Mol/l vs water
  ratio: Solubility in a 10^-2 Mol/l solution of CD/solubility in water: 4.05

## CC(=O)OC1C=CC(C)=CCC(O)C=CC(C)=CC(NC(=O)C(C)O)C2(C)C(=O)OC(C1)C(C)C2=O (stereo not drawn) [Lankacidinol A, lankacidinol A]
[1]; [5]
  solubility: 3070 µg/mL (≈ 6100 µM)
[1]; [6]
  solubility: 170 µg/mL (≈ 338 µM)
[1]; β-CD 10^-2 Mol/l vs water
  ratio: Solubility in a 10^-2 Mol/l solution of CD/solubility in water: 18.1

## CC1=CCC(O)C=CC(C)=CC(NC(=O)C(C)O)C2(C)C(=O)OC(CC(O)C=C1)C(C)C2=O (stereo not drawn) [Lankacidinol, lankacidinol]
[2]; aqueous β-cd solution, β-CD 2 × 10^-3 Mol/l
  solubility at 16 h: 1360 µg/mL (≈ 2950 µM)
[2]; aqueous β-cd solution, β-CD 5 × 10^-3 Mol/l
  solubility at 16 h: 2130 µg/mL (≈ 4610 µM)
[2]; aqueous β-cd solution, β-CD 10^-2 Mol/l
  solubility at 16 h: 2750 µg/mL (≈ 5960 µM)
[2]; aqueous β-cd solution, β-CD 10^-3 Mol/l
  solubility at 16 h: 914 µg/mL (≈ 1980 µM)
[2]; from the vicinity of 10^-3 Mol/l of β-CD
  Solubility in β-CD solution as function of β-CD concentration: increase in proportion to the concentration of β-CD
[2]; water, β-CD 0 Mol/l
  solubility at 16 h: 444 µg/mL (≈ 962 µM)
St. aureus 209P; 0 day
  Antibacterial activity, inhibition diameter: 25.75 mm
St. aureus 209P; 3 days at 24° C.
  Antibacterial activity, inhibition diameter: 27.0 mm
St. aureus 209P; 6 days at 24° C.
  Antibacterial activity, inhibition diameter: 30.0 mm
[3]; m/100 cyclodextrin solution, M/100 cyclodextrin, (3) cyclodextrin 11.3 mg/ml, read-out: (2) Solubility of lankacidin-group in M/100 cyclodextrin solution
  solubility: 3780 µg/mL (≈ 8190 µM)
[3]; water, read-out: (1) Solubility of lankacidin-group in water
  solubility: 655 µg/mL (≈ 1420 µM)

## CC1=CCC(O)C=CC(C)=CC(NC(=O)C(C)O)C(C)C(=O)C(C)=CCC(O)C=C1 (stereo not drawn) [Lankacyclinol, lankacyclinol]
[1]
  ratio: Solubility in a 10^-2 Mol/l solution of CD/solubility in water: 4.38
[1]; [4]
  solubility: 3610 µg/mL (≈ 8650 µM)
[1]; water
  solubility: 824 µg/mL (≈ 1970 µM)

## OC[C@H]1O[C@@H]2O[C@H]3[C@H](O)[C@@H](O)[C@@H](O[C@H]4[C@H](O)[C@@H](O)[C@@H](O[C@H]5[C@H](O)[C@@H](O)[C@@H](O[C@H]6[C@H](O)[C@@H](O)[C@@H](O[C@H]7[C@H](O)[C@@H](O)[C@@H](O[C@H]8[C@H](O)[C@@H](O)[C@@H](O[C@H]1[C@H](O)[C@H]2O)O[C@@H]8CO)O[C@@H]7CO)O[C@@H]6CO)O[C@@H]5CO)O[C@@H]4CO)O[C@@H]3CO [cyclodextrin, β-cyclodextrin]
[3]; water
  Concentration of cyclodextrin in its saturated aqueous solution: 1000 µg/mL

## Iso-lankacidinol
[1]; β-CD 0 Mol/l (water)
  solubility: 796 µg/mL
[1]; β-CD 10^-2 Mol/l
  solubility: 3200 µg/mL
[1]; β-CD 10^-2 Mol/l vs water
  ratio: Solubility in a 10^-2 Mol/l solution of CD/solubility in water: 4.02
